Among the data in patent US20260070945A1, “MACROCYCLIC IMMUNOMODULATORS” (Bristol-Myers Squibb Company, priority 2022, published 2026) are IC50 values, retold here.

By IC50 is commonly meant the concentration at which inhibition is half-maximal.

Where a SMILES comes first, the peptide text is derived from it. Bridges are numbered along the chain shown (N, C = ends). [ ]: non-standard residue; d: D form. The star is where a group is joined. ξ: configuration not given here. Phe(4-COOH) = N[C@@H](Cc1ccc(C(=O)O)cc1)C(=O)O; Bip = N[C@@H](Cc1ccc(-c2ccccc2)cc1)C(=O)O; Phe(3-Me) = Cc1cccc(C[C@H](N)C(=O)O)c1; Cha = N[C@@H](CC1CCCCC1)C(=O)O; Cit = NC(=O)NCCC[C@H](N)C(=O)O; Ile(3ξ) = CCC(C)[C@H](N)C(=O)O; Thr(3ξ) = CC(O)[C@H](N)C(=O)O; Carboxymethyl = O=C(O)C*; NMeA = CN[C@@H](C)C(=O)O; Aun = NCCCCCCCCCCC(=O)O; Dab = NCC[C@H](N)C(=O)O; Dap = NC[C@H](N)C(=O)O; AEEA = NCCOCCOCC(=O)O

In the experiment the target is T1, PD-1/PD-L1 interaction (PE-labeled human PD-L1-Ig binding to Jurkat cell line over-expressing human PD-1) (Homo sapiens, UniProt Q15116).
T1 construct: expressed in transfected cells; host or cells: Jurkat
T1 sequence (Q15116 25-288): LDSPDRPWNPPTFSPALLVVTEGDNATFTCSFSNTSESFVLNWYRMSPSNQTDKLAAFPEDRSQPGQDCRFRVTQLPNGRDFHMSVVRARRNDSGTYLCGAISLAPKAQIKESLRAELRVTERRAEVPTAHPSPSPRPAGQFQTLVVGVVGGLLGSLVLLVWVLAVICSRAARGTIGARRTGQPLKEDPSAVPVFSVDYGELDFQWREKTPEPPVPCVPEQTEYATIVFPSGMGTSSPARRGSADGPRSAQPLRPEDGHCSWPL
Nature of the experiment: Jurkat-PD-1 Cell Binding High-Content Screening Assay (CBA). The conditions noted are these: Jurkat-hPD-1 cells, PE-labeled PD-L1-Ig 20 nM final; read-out: Jurkat HPD1 PDL1 IC50. The method in brief: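 In this imaging assay, cells in 10% FCS medium see compound for 2 h at 37 °C and then labeled ligand at 20 nM final for 1 h. Paraformaldehyde fixation, Hoechst 33342 staining and dPBS washes precede image capture.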
Take `Cc1cccc(C[C@@H]2NC(=O)[C@H](CC(=O)O)NC(=O)[C@H](Cc3ccc(C(=O)O)cc3)NC(=O)[C@H](Cc3ccc(OCC(=O)O)cc3)NC(=O)CSC[C@@H](C(=O)N[C@@H](CCN)C(=O)NCCCCCCCCCCC(=O)O)NC(=O)[C@H](C(C)O)NC(=O)[C@H](C(C)C)NC(=O)[C@H](CC3CCCCC3)NC(=O)[C@H](CCN)NC(=O)[C@@H](CC(C)C)NC(=O)[C@H](C)N(C)C(=O)[C@H](C(C)C)NC(=O)[C@H](Cc3ccc(-c4ccccc4)cc3)NC(=O)[C@H](CC(C)C)NC2=O)c1` (stereo partly drawn) [Example 2323] ({CH2CO}-Y(Carboxymethyl)[Phe(4-COOH)]D[Phe(3-Me)]L[Bip]V[NMeA][dL][Dab][Cha]V[Thr(3ξ)]C[Dab][Aun]-OH; thioether N-14): the IC50 is 25.6 nM.

With `Cc1cccc(C[C@@H]2NC(=O)[C@H](CC(=O)O)NC(=O)[C@H](Cc3ccc(C(=O)O)cc3)NC(=O)[C@H](Cc3ccc(OCC(=O)O)cc3)NC(=O)CSC[C@@H](C(=O)N[C@@H](CCN)C(=O)NCCCCCCCCCCC(=O)O)NC(=O)[C@H](C(C)O)NC(=O)[C@H](C(C)C)NC(=O)[C@H](CC3CCCCC3)NC(=O)[C@H](CCN)NC(=O)[C@@H](CC(C)C)NC(=O)[C@H](C)N(C)C(=O)[C@H](CCCNC(N)=O)NC(=O)[C@H](Cc3ccc(-c4ccccc4)cc3)NC(=O)[C@H](CC(C)C)NC2=O)c1` (stereo partly drawn) [Example 2324] ({CH2CO}-Y(Carboxymethyl)[Phe(4-COOH)]D[Phe(3-Me)]L[Bip][Cit][NMeA][dL][Dab][Cha]V[Thr(3ξ)]C[Dab][Aun]-OH; thioether N-14), the IC50 turned out to be 12.8 nM.

`Cc1cccc(C[C@@H]2NC(=O)[C@H](CC(=O)O)NC(=O)[C@H](Cc3ccc(C(=O)O)cc3)NC(=O)[C@H](Cc3ccc(OCC(=O)O)cc3)NC(=O)CSC[C@@H](C(=O)NCCOCCOCC(=O)NCCCCCCCCCCC(=O)O)NC(=O)[C@H](C(C)O)NC(=O)[C@H](C(C)C)NC(=O)[C@H](CC3CCCCC3)NC(=O)[C@H](CCN)NC(=O)[C@@H](CC(C)C)NC(=O)[C@H](C)N(C)C(=O)[C@H](C(C)C)NC(=O)[C@H](Cc3ccc(-c4ccccc4)cc3)NC(=O)[C@H](CC(C)C)NC2=O)c1` (stereo partly drawn) [Example 2325] ({CH2CO}-Y(Carboxymethyl)[Phe(4-COOH)]D[Phe(3-Me)]L[Bip]V[NMeA][dL][Dab][Cha]V[Thr(3ξ)]C[AEEA][Aun]-OH; thioether N-14): the IC50 amounted to 30 nM. The value for `Cc1cccc(C[C@@H]2NC(=O)[C@H](CC(=O)O)NC(=O)[C@H](Cc3ccc(C(=O)O)cc3)NC(=O)[C@H](Cc3ccc(OCC(=O)O)cc3)NC(=O)CSC[C@@H](C(=O)N[C@H](CC(N)=O)C(=O)NCCCCCCCCCCC(=O)O)NC(=O)[C@H](C(C)O)NC(=O)[C@H](C(C)C)NC(=O)[C@H](CC3CCCCC3)NC(=O)[C@H](CCN)NC(=O)[C@@H](CC(C)C)NC(=O)[C@H](C)N(C)C(=O)[C@H](C(C)C)NC(=O)[C@H](Cc3ccc(-c4ccccc4)cc3)NC(=O)[C@H](CC(C)C)NC2=O)c1` (stereo partly drawn) [Example 2326] ({CH2CO}-Y(Carboxymethyl)[Phe(4-COOH)]D[Phe(3-Me)]L[Bip]V[NMeA][dL][Dab][Cha]V[Thr(3ξ)]C[dN][Aun]-OH; thioether N-14) was 41.3 nM. On to `Cc1cccc(C[C@@H]2NC(=O)[C@H](CC(=O)O)NC(=O)[C@H](Cc3ccc(C(=O)O)cc3)NC(=O)[C@H](Cc3ccc(OCC(=O)O)cc3)NC(=O)CSC[C@@H](C(=O)N[C@H](CC(N)=O)C(=O)NCCCCCCCCCCC(=O)O)NC(=O)[C@H](C(C)O)NC(=O)[C@H](C(C)C)NC(=O)[C@H](CC3CCCCC3)NC(=O)[C@H](CCN)NC(=O)[C@@H](CC(C)C)NC(=O)[C@H](C)N(C)C(=O)[C@H](CCCNC(N)=O)NC(=O)[C@H](Cc3ccc(-c4ccccc4)cc3)NC(=O)[C@H](CC(C)C)NC2=O)c1` (stereo partly drawn) [Example 2327] ({CH2CO}-Y(Carboxymethyl)[Phe(4-COOH)]D[Phe(3-Me)]L[Bip][Cit][NMeA][dL][Dab][Cha]V[Thr(3ξ)]C[dN][Aun]-OH; thioether N-14), for which the IC50 was 13 nM. The value for `CCC(C)[C@@H]1NC(=O)[C@H](Cc2ccc(-c3ccccc3)cc2)NC(=O)[C@H](C(C)C)NC(=O)[C@H](Cc2cccc(C)c2)NC(=O)[C@H](CC(=O)O)NC(=O)[C@H](Cc2ccc(OCC(=O)O)cc2)NC(=O)[C@H](C(C)O)NC(=O)CSC[C@@H](C(=O)NCCOCCOCC(=O)NCCCCCCCCCCC(=O)O)NC(=O)[C@H](C(C)O)NC(=O)[C@H](C(C)C)NC(=O)[C@H](CC2CCCCC2)NC(=O)[C@H](CCN)NC(=O)[C@@H](CC(C)C)NC(=O)[C@H](C)N(C)C1=O` (stereo partly drawn) [Example 2328] ({CH2CO}-[Thr(3ξ)]Y(Carboxymethyl)D[Phe(3-Me)]V[Bip][Ile(3ξ)][NMeA][dL][Dab][Cha]V[Thr(3ξ)]C[AEEA][Aun]-OH; thioether N-14) was 19.5 nM; that for `Cc1cccc(C[C@@H]2NC(=O)[C@H](CC(=O)O)NC(=O)[C@H](Cc3ccc(C(=O)O)cc3)NC(=O)[C@H](Cc3ccc(OCC(=O)O)cc3)NC(=O)CSC[C@@H](C(=O)NCCCCCCCCCCC(=O)O)NC(=O)[C@H](C(C)O)NC(=O)[C@H](C(C)C)NC(=O)[C@H](CC3CCCCC3)NC(=O)[C@H](CCN)NC(=O)[C@@H](CC(C)C)NC(=O)[C@H](C)N(C)C(=O)[C@H](Cc3ccc(O)cc3)NC(=O)[C@H](Cc3ccc(-c4ccccc4)cc3)NC(=O)[C@H](CC(C)C)NC2=O)c1` (stereo partly drawn) [Example 2329] ({CH2CO}-Y(Carboxymethyl)[Phe(4-COOH)]D[Phe(3-Me)]L[Bip]Y[NMeA][dL][Dab][Cha]V[Thr(3ξ)]C[Aun]-OH; thioether N-14) was 195 nM. In the case of `Cc1cccc(C[C@@H]2NC(=O)[C@H](CC(=O)O)NC(=O)[C@H](Cc3ccc(C(=O)O)cc3)NC(=O)[C@H](Cc3ccc(OCC(=O)O)cc3)NC(=O)CSC[C@@H](C(=O)NCCCCCCCCCCC(=O)O)NC(=O)[C@H](C(C)O)NC(=O)[C@H](C(C)C)NC(=O)[C@H](CC3CCCCC3)NC(=O)[C@H](CCN)NC(=O)[C@@H](CC(C)C)NC(=O)[C@H](C)N(C)C(=O)[C@H](CCCNC(N)=O)NC(=O)[C@H](Cc3ccc(-c4ccccc4)cc3)NC(=O)[C@H](CC(C)C)NC2=O)c1` (stereo partly drawn) [Example 2330] ({CH2CO}-Y(Carboxymethyl)[Phe(4-COOH)]D[Phe(3-Me)]L[Bip][Cit][NMeA][dL][Dab][Cha]V[Thr(3ξ)]C[Aun]-OH; thioether N-14) it was 38.1 nM; in that of `Cc1cccc(C[C@@H]2NC(=O)[C@H](CC(=O)O)NC(=O)[C@H](Cc3ccc(C(=O)O)cc3)NC(=O)[C@H](Cc3ccc(OCC(=O)O)cc3)NC(=O)CSC[C@@H](C(=O)NCCCCCCCCCCC(=O)O)NC(=O)[C@H](C(C)O)NC(=O)[C@H](C(C)C)NC(=O)[C@H](CC3CCCCC3)NC(=O)[C@H](CCN)NC(=O)[C@@H](CC(C)C)NC(=O)[C@H](C)N(C)C(=O)[C@H](Cc3ccc(O)cc3)NC(=O)[C@H](Cc3ccc(-c4ccccc4)cc3)NC(=O)[C@H](Cc3ccc(O)cc3)NC2=O)c1` (stereo partly drawn) [Example 2331] ({CH2CO}-Y(Carboxymethyl)[Phe(4-COOH)]D[Phe(3-Me)]Y[Bip]Y[NMeA][dL][Dab][Cha]V[Thr(3ξ)]C[Aun]-OH; thioether N-14), 160 nM; in that of `Cc1cccc(C[C@@H]2NC(=O)[C@H](CC(=O)O)NC(=O)[C@H](Cc3ccc(C(=O)O)cc3)NC(=O)[C@H](Cc3ccc(OCC(=O)O)cc3)NC(=O)CSC[C@@H](C(=O)NCCCCCCCCCCC(=O)O)NC(=O)[C@H](C(C)O)NC(=O)[C@H](C(C)C)NC(=O)[C@H](CC3CCCCC3)NC(=O)[C@H](CCN)NC(=O)[C@@H](CC(C)C)NC(=O)[C@H](C)N(C)C(=O)[C@H](Cc3ccc(C(=O)O)cc3)NC(=O)[C@H](Cc3ccc(-c4ccccc4)cc3)NC(=O)[C@H](CC(C)C)NC2=O)c1` (stereo partly drawn) [Example 2332] ({CH2CO}-Y(Carboxymethyl)[Phe(4-COOH)]D[Phe(3-Me)]L[Bip][Phe(4-COOH)][NMeA][dL][Dab][Cha]V[Thr(3ξ)]C[Aun]-OH; thioether N-14), 343 nM.

Turning to `Cc1cccc(C[C@@H]2NC(=O)[C@H](CC(=O)O)NC(=O)[C@H](Cc3ccc(OCC(=O)O)cc3)NC(=O)[C@H](Cc3ccc(OCC(=O)O)cc3)NC(=O)CSC[C@@H](C(=O)N[C@@H](CN)C(=O)NCCCCCCCCCCC(=O)O)NC(=O)[C@H](C(C)O)NC(=O)[C@H](C(C)C)NC(=O)[C@H](CC3CCCCC3)NC(=O)[C@H](CCN)NC(=O)[C@@H](CC(C)C)NC(=O)[C@H](C)N(C)C(=O)[C@H](C(C)C)NC(=O)[C@H](Cc3ccc(-c4ccccc4)cc3)NC(=O)[C@H](CC(C)C)NC2=O)c1` (stereo partly drawn) [Example 2333] ({CH2CO}-Y(Carboxymethyl)Y(Carboxymethyl)D[Phe(3-Me)]L[Bip]V[NMeA][dL][Dab][Cha]V[Thr(3ξ)]C[Dap][Aun]-OH; thioether N-14), the IC50 was 23.5 nM. The value for `Cc1cccc(C[C@@H]2NC(=O)[C@H](CC(=O)O)NC(=O)[C@H](Cc3ccc(OCC(=O)O)cc3)NC(=O)[C@H](Cc3ccc(OCC(=O)O)cc3)NC(=O)CSC[C@@H](C(=O)N[C@@H](CN)C(=O)NCCCCCCCCCCC(=O)O)NC(=O)[C@H](C(C)O)NC(=O)[C@H](C(C)C)NC(=O)[C@H](CC3CCCCC3)NC(=O)[C@H](CCN)NC(=O)[C@@H](CC(C)C)NC(=O)[C@H](C)N(C)C(=O)[C@H](CCCNC(N)=O)NC(=O)[C@H](Cc3ccc(-c4ccccc4)cc3)NC(=O)[C@H](CC(C)C)NC2=O)c1` (stereo partly drawn) [Example 2334] ({CH2CO}-Y(Carboxymethyl)Y(Carboxymethyl)D[Phe(3-Me)]L[Bip][Cit][NMeA][dL][Dab][Cha]V[Thr(3ξ)]C[Dap][Aun]-OH; thioether N-14) was 22.8 nM.

As to `Cc1cccc(C[C@@H]2NC(=O)[C@H](CC(=O)O)NC(=O)[C@H](Cc3ccc(C(=O)O)cc3)NC(=O)[C@H](Cc3ccc(OCC(=O)O)cc3)NC(=O)CSC[C@@H](C(=O)N[C@@H](CCN)C(=O)NCCCCCCCCCCC(=O)O)NC(=O)[C@H](C(C)O)NC(=O)[C@H](C(C)C)NC(=O)[C@H](CC3CCCCC3)NC(=O)[C@H](CCN)NC(=O)[C@@H](CC(C)C)NC(=O)[C@H](C)N(C)C(=O)[C@H](Cc3ccc(C(=O)O)cc3)NC(=O)[C@H](Cc3ccc(-c4ccccc4)cc3)NC(=O)[C@H](CC(C)C)NC2=O)c1` (stereo partly drawn) [Example 2335] ({CH2CO}-Y(Carboxymethyl)[Phe(4-COOH)]D[Phe(3-Me)]L[Bip][Phe(4-COOH)][NMeA][dL][Dab][Cha]V[Thr(3ξ)]C[Dab][Aun]-OH; thioether N-14), the IC50 was found to be 47.4 nM.
